Results on 2 molecules are retold here after US20220153746A1, “NITROGEN OXIDE-DONATING PDE-5 AND/OR PDE-6 INHIBITOR COMPOUNDS, AND USES THEREOF” (ILDONG PHARMACEUTICAL CO., LTD., priority 2020, published 2022).

Data set [1] is described as follows: Metabolic stability in human liver microsomes. The format is in vitro ADME. The conditions noted are these: 37° C., 0-60 minutes. The procedure: This example illustrates the metabolic stability of selected compounds in human liver microsomes samples.
Both test and control compound solutions were prepared by diluting 5 μL of the respective stock solutions (10 mM in DMSO) containing either the test or control compound with 495 μL of acetonitrile (ACN) to give intermediate solutions with concentrations of 100 μM (99% ACN).
β-Nicotinamide adenine dinucleotide phosphate tetrasodium salt (NADPH.4Na) was purchased from BONTAC (cat. No. BT04). The NADPH working solution (10 unit/mL) was prepared by combining the appropriate amount of NADPH powder and a MgCl2 solution (10 mM) to give final concentration in the reaction system of 1 unit/mL.
The appropriate concentrations of the microsome working solutions were prepared in 100 mM potassium phosphate buffer.
Cold (4° C.) acetonitrile solution containing 200 ng/mL tolbutamide and 200 ng/mL labetalol (internal standard) was used as the stop solution.
Liver microsomes solution was diluted to 0.56 mg/mL in 100 mM phosphate buffer, and 445 μL of this solution was transferred into pre-warmed (10 minutes) “incubation” plates T60 and NCF60; the “incubation” plates T60 and NCF60 were pre-warmed for 10 minutes at 37° C. with constant shaking.
54 μL of the liver microsome solutions was transferred to the blank plate, followed by addition of 6 μL of the NAPDH cofactor solution and 180 μL of the quenching solution to the same blank plate.
5 μL of the compound working solution (100 μM concentration) was next added to into the “incubation” plates (T60 and NCF60) containing microsomes and mixed 3 times thoroughly. For the NCF60 plate, 50 μL of the buffer solution was added, mixed 3 times thoroughly, and incubated at 37° C. for 60 minutes under constant shaking.
In the “Quenching” plate at T0 (T=0 min), 180 μL of quenching solution and 6 μL of the NAPDH cofactor solution were added, and the resulting plate was chilled to prevent evaporation.
In the T60 plate, after it was thoroughly mixed, 54 μL of the mixture was immediately transferred to the “quenching” plate for the 0-minute time point, followed by addition of 44 μL of NAPDH cofactor solution to the incubation plate (T60). The resulting mixture was then incubated at 37° C. for 60 minutes under constant shaking. At time points of 5, 10, 20, 30 and 60 minutes, 180 μL of the quenching solution was added to the “quenching” plates, followed by serial transfer of 60 μL of the mixture (per time point) from the T60 plate to the “Quenching” plates.
For the NCF60 plates, 60 μL of the sample solution was transferred from the NCF60 incubation plate to the “Quenching” plate containing quenching solution at T=60 min time point. […]
Background: Liver microsomes are vesicles of endoplasmic reticulum, rich in cytochrome P450 enzymes.

The next data set deals with human plasma proteins. Briefly: Plasma protein binding assay (equilibrium dialysis). The format is in vitro ADME. Particulars: 2 μM, dialysis 4 hours at 37° C. The procedure:
(§1) The dialysis device used in this example is a 96-well equilibrium dialysis plate (Cat #1006, HT Dialysis LLC, Gales Gerry, CT), and HTD 96 a/b dialysis membrane strips (Cat #1101, MWCO 12-14 kDa, HT Dialysis LLC). The dialysis device was assembled following the manufacturer's instructions.
(§2) The dialysis membrane strips were soaked in ultra-pure water at room temperature for approximately 1 hour. Each membrane strip containing 2 membranes was separated and soaked in 20:80 ethanol/water (v/v) for approximately 20 minutes, after which they were ready for used or were stored in the solution at 2-8° C. for up to a month. Prior to experiment, the membrane was rinsed and soaked for 20 minutes in ultra-pure water.
(§3) On the day of the experiment, the plasma was thawed by running under col tap water and centrifuged at 3220 rpm for 5 minutes to remove any clos. The pH value of the resulting plasma was checked. Only plasma with pH value with 7.0-8.0 could be used.
(§4) Both test and control compounds were dissolved in DMSO to achieve 10 mM stock solutions. Working solutions (400 μM) if test and control compounds were prepared by diluting 10μ of stock solutions with 240 μL of DMSO. Loading matrix solutions (2 μM) of both test and control compounds were prepared by diluting 5 μL of working solutions with 995 μL of blank matrix.
(§5) To prepare the loading matrix containing the test compound or control compounds, aliquots of either test compound working solutions or control compound working solution were spiked into blank matrix to achieve final test concentrations. The concentration of organic solvent in the final solutions were no more than 1% (normally 0.5%). The samples were mixture thoroughly before being used.
(§6) To prepare the time zero (T0) samples to be used for recovery determinations. 50 μL aliquots of loading matrix solution were transferred in triplicate to the sample collection plate. The samples were immediately matched with opposite blank buffer to obtain a final volume of 100 μL of 1:1 matrix/dialysis buffer (v/v) in each well. 500 μL of stop solution were added to these T0 samples. They were then stored at 2-8° C. pending further processes along with other post-dialysis samples.
(§7) To load the dialysis device, an aliquot of 150 μL of the loading matrix was transferred to the donor side of each dialysis well in triplicate, and 150 μL of the dialysis buffer was loaded to the received side of the well. The dialysis was placed in humidified incubator at 37° C. with 5% CO2 on a shaking platform that rated slowly (about 100 rpm) for 4 hours.
(§8) At the end of the dialysis, aliquots of 50 μL of samples were taken from both the buffer side and the matrix side of the dialysis deice. These samples were transferred into new 96-well plates (the sample collection plates). Each sample was mixed with an equal volume of opposite blank matrix (buffer or matrix) to reach a final volume of 100 μL of 1:1 matrix/dialysis buffer (v/v) in each well. All samples were further processed by adding 500 μL of stop solution containing internal standards. The mixture was vortexed and centrifuged at 4000 rpm for about 20 minutes. An aliquot of 100 μL of supernatant of all the samples were then removed for LC-MS/MS analysis.
(§9) The single blank samples were prepared by transferring 50 μL of blank matrix to a 96 well plate and adding 50 μL of blank PBS buffer to each well. The blank plasma must match the species of plasma used in the plasma side of the well. Then the matrix-matched samples were further processed by adding 500 μL of stop solution containing internal standards, following the same sample processing method as the dialysis samples.

Experiment in data set [2]: as above
The format is in vitro ADME. Particulars: human plasma, dialysis 4 hours at 37° C. The procedure: as §1, §2, §3, §4, §5, §6, §7, §8, §9

The next data set addresses human PDE-6C (Homo sapiens, UniProt P51160). Briefly: Human PDE-6C inhibition assay (fluorescence polarization, FAM-cGMP). In kind it is biochemical. The conditions noted are these: read-out: IC50 (μM) PDE6C.
A further data set concerns the target human PDE-5A1 (Homo sapiens, UniProt O76074). Briefly: Human PDE-5A1 inhibition assay (fluorescence polarization, FAM-cGMP). In kind it is biochemical. The conditions noted are these: read-out: IC50 (μM) PDE5A1. A general note: Fluorescence polarisation rises when a labelled molecule tumbles more slowly, as on binding a larger partner.

human PDE-6C, sequence (P51160 whole entry): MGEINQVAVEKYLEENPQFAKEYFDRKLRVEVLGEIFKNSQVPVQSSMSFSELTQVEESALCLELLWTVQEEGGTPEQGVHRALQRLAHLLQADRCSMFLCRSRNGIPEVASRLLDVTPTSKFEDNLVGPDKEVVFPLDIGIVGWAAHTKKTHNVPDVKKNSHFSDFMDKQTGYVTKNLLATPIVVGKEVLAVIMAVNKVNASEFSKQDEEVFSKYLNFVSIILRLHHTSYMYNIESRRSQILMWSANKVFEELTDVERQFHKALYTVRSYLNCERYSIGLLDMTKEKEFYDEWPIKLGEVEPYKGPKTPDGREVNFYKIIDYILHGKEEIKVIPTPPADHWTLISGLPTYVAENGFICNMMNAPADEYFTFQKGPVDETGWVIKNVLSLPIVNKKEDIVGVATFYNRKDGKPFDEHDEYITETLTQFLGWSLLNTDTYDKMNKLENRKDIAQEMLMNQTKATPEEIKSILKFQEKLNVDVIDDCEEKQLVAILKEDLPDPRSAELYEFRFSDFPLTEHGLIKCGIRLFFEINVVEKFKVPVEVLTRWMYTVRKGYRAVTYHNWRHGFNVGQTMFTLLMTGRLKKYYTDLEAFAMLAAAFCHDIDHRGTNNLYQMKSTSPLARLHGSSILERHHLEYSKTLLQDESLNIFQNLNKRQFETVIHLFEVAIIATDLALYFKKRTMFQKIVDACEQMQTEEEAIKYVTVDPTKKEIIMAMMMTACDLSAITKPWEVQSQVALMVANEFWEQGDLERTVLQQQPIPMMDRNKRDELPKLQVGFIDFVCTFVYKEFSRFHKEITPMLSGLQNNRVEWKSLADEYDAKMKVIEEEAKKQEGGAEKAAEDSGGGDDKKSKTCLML

As for `CCCc1nn(C)c2c(=O)[nH]c(-c3cc(S(=O)(=O)N4CC(NCCCO)C4)ccc3OCC)nc12` [Compound 10, 5-(2-ethoxy-5-((3-((3-hydroxypropyl)amino)azetidin-1-yl)sulfonyl)phenyl)-1-methy-3-propyl-1,6-dihydro-7H-pyrazolo[4,3-d]pyrimidin-7-one], in data set [1], the intrinsic metabolic clearance (CLint scaled) (commonly a measure of how fast metabolising enzymes remove a compound, apart from limits set by blood flow) at 1 µM worked out at 55 mL/min/kg. The “% Bound” value in the data set with human plasma proteins stood at 86.19%. Moreover, the fraction unbound (in general, free concentration divided by total concentration) at 4 h, 2 µM in data set [2] stood at 0.138.
Turning to `CCCc1nn(C)c2c(=O)[nH]c(-c3cc(S(=O)(=O)N4CC(NCCCO[N+](=O)[O-])C4)ccc3OCC)nc12` [Compound 22, 3-((1-((4-ethoxy-3-(1-methyl-7-oxo-3-propyl-6,7-dihydro-1H-pyrazolo[4,3-d]pyrimidin-5-yl)phenyl)sulfonyl)azetidin-3-yl)amino)propyl nitrate], in data set [1], the CLint scaled at 1 µM was 358 mL/min/kg. The IC50 at human PDE-6C and on human PDE-5A1 was less than 0.01 µM throughout. Further, the “% Bound” value with human plasma proteins turned out to be 97.53%. Besides, the fraction unbound at 4 h, 2 µM in data set [2] amounted to 0.0247.
